Test results published in US20060281771A1, “SYNERGISTIC MODULATION OF FLT3 KINASE USING AMINOQUINOLINE AND AMINOQUINAZOLINE KINASE MODULATORS” (priority 2005, published 2006).

How the values were obtained:
[1] = target: T1, isolated kinase domain of the human FLT3 receptor (a.a. 571-993) (Homo sapiens, UniProt P36888); experiment: FLT3 fluorescence polarization kinase assay; type: biochemical
T1 construct: human FLT3 receptor (a.a. 571-993)
T1 sequence (P36888 571-993): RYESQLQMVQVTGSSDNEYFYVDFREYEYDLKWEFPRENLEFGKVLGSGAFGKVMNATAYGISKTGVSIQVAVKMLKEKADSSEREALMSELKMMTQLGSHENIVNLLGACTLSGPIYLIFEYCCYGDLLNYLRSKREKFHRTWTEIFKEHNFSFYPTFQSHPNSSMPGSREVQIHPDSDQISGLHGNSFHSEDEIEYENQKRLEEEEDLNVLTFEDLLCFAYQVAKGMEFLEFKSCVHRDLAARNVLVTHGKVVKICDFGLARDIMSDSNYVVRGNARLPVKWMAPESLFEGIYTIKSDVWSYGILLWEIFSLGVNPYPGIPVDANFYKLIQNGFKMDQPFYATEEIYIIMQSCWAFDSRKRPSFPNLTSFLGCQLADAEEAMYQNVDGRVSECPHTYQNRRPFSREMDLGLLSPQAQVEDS
Description: The FLT3 FP assay utilizes the fluorescein-labeled phosphopeptide and the anti-phosphotyrosine antibody included in the Panvera Phospho-Tyrosine Kinase Kit (Green) supplied by Invitrogen. When FLT3 phosphorylates polyGlu4Tyr, the fluorescein-labeled phosphopeptide is displaced from the anti-phosphotyrosine antibody by the phosphorylated poly Glu4Tyr, thus decreasing the FP value. […] The kinase reaction is stopped with the addition of EDTA. The fluorescein-labeled phosphopeptide and the anti-phosphotyrosine antibody are added and incubated for 30 minutes at room temperature.
All data points are an average of triplicate samples. Inhibition and IC50 data analysis was done with GraphPad Prism using a non-linear regression fit with a multiparamater, sigmoidal dose-response (variable slope) equation.

MV4-11 cells = experiment: Inhibition of MV4-11 cell proliferation (CellTiterGlo, 72 h); type: cell-based; details: Homo sapiens; 72 h growth inhibition
How it was run: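 MV4-11 (FLT3-ITD) cells, 10,000/well in RPMI/10% FBS with 1 ng/ml GM-CSF, treated 72 h at 37 °C; some runs in 1:1 medium/human plasma. Growth read as ATP luminescence; 100% inhibition = Day 0 RLU, 0% = DMSO at Day 3. IC50 from sigmoidal variable-slope fit of triplicates.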

| IC50 [1] [nM] | IC50 (MV4-11 cells) [nM] | SMILES |
| --- | --- | --- |
| 68 | 1380 | COc1cc2ncnc(N3CCC(N(C)C(=O)Nc4ccc(C(C)C)cc4)C3)c2cc1OC (stereo not shown) [Compound 19, 1-[1-(6,7-Dimethoxy-quinazolin-4-yl)-pyrrolidin-3-yl]-3-(4-isopropyl-phenyl)-1-methyl-urea] |
| 1300 | 1900 | COc1cc2ncnc(N3CCC(NC(=O)Cc4ccc(C(C)C)cc4)C3)c2cc1OC (stereo not shown) [Compound 35, N-[1-(6,7-Dimethoxy-quinazolin-4-yl)-pyrrolidin-3-yl]-2-(4-isopropyl-phenyl)-acetamide] |
| 96 | 262 | CC(C)c1ccc(NC(=O)OC2CCN(c3ncnc4ccc(I)cc34)C2)cc1 (stereo not shown) [Compound 20, (4-Isopropyl-phenyl)-carbamic acid 1-(6-iodo-quinazolin-4-yl)-pyrrolidin-3-yl ester] |
| 7 | 248 | COc1cc2ncnc(N3CCC(OC(=O)Nc4ccc(C(C)C)cc4)C3)c2cc1OC (stereo not shown) [Compound 2, (4-Isopropyl-phenyl)-carbamic acid 1-(6,7-dimethoxy-quinazolin-4-yl)-pyrrolidin-3-yl ester] |
| 6 | 181 | COc1cc2ncnc(N3CCC(OC(=O)Nc4ccc(C(C)C)cc4)CC3)c2cc1OC [Compound 1, (4-Isopropyl-phenyl)-carbamic acid 1-(6,7-dimethoxy-quinazolin-4-yl)-piperidin-4-yl ester] |
| 23 | 1880 | COc1cc2ncnc(N3CCC(NC(=O)Nc4ccc(OC(C)C)cc4)C3)c2cc1OC (stereo not shown) [Compound 8, 1-[1-(6,7-Dimethoxy-quinazolin-4-yl)-pyrrolidin-3-yl]-3-(4-isopropoxy-phenyl)-urea] |
| 185 | 1980 | COc1cc2ncnc(N3CCC(C(=O)Nc4ccc(OC(C)C)cc4)CC3)c2cc1OC [Compound 23, 1-(6,7-Dimethoxy-quinazolin-4-yl)-piperidine-4-carboxylic acid (4-isopropoxy-phenyl)-amide] |
| 868 | 1400 | COc1cc2ncc(C#N)c(N3CCC(OC(=O)Nc4ccc(OC(C)C)cc4)C3)c2cc1OC (stereo not shown) [Compound 32, (4-Isopropoxy-phenyl)-carbamic acid 1-(3-cyano-6,7-dimethoxy-quinolin-4-yl)-pyrrolidin-3-yl ester] |
| 12 | 7 | COc1cc2ncnc(N3CCC(CC(=O)Nc4ccc(C(C)C)cc4)CC3)c2cc1OC [Compound 5, 2-[1-(6,7-Dimethoxy-quinazolin-4-yl)-piperidin-4-yl]-N-(4-isopropyl-phenyl)-acetamide] |
| 1680 | 3190 | COc1cc2ncnc(N3CCC(N(C)C(=O)Nc4ccc(OC(C)C)cc4)C3)c2cc1OC (stereo not shown) [Compound 36, 1-[1-(6,7-Dimethoxy-quinazolin-4-yl)-pyrrolidin-3-yl]-3-(4-isopropoxy-phenyl)-1-methyl-urea] |
| 66 | 1300 | COc1cc2ncnc(N3CCC(CNC(=O)Nc4ccc(C(C)C)cc4)CC3)c2cc1OC [Compound 18, 1-[1-(6,7-Dimethoxy-quinazolin-4-yl)-piperidin-4-ylmethyl]-3-(4-isopropyl-phenyl)-urea] |
| 11 | 86 | COc1cc2ncnc(N3CCCC(COC(=O)Nc4ccc(C(C)C)cc4)C3)c2cc1OC (stereo not shown) [Compound 4] |
| 14 | 8 | COc1cc2ncnc(N3CCC(CC(=O)Nc4ccc(C(C)C)cc4)C3)c2cc1OC (stereo not shown) [Compound 6, 2-[11-(6,7-Dimethoxy-quinazolin-4-yl)-pyrrolidin-3-yl]-N-(4-isopropyl-phenyl)-acetamide] |
| 1000 | 343 | COc1cc2ncnc(N3CCCCC3COC(=O)Nc3ccc(C(C)C)cc3)c2cc1OC (stereo not shown) [Compound 33, (4-Isopropyl-phenyl)-carbamic acid 1-(6,7-dimethoxy-quinazolin-4-yl)-piperidin-2-ylmethyl ester] |
| 150 | 78 | COc1cc2ncnc(N3CCC(NC(=O)Cc4ccc(C(C)C)cc4)CC3)c2cc1OC [Compound 21, N-[1-(6,7-Dimethoxy-quinazolin-4-yl)-piperidin-4-yl]-2-(4-isopropyl-phenyl)-acetamide] |
| 42 | 866 | COc1cc2ncnc(N3CCC(OC(=O)Nc4ccc(OC(C)C)cc4)C3)c2cc1OC (stereo not shown) [Compound 15, (4-Isopropoxy-phenyl)-carbamic acid 1-(6,7-dimethoxy-quinazolin-4-yl)-pyrrolidin-3-yl ester] |
| 45 | 278 | CC(C)c1ccc(NC(=O)NC2CCN(c3ncnc4ccccc34)C2)cc1 (stereo not shown) [Compound 16, 1-(4-Isopropyl-phenyl)-3-(1-quinazolin-4-yl-pyrrolidin-3-yl)urea] |
| 531 | 1700 | COc1cc2ncc(C#N)c(N3CCC(NC(=O)Nc4ccc(OC(C)C)cc4)C3)c2cc1OC (stereo not shown) [Compound 29, 1-[1-(3-Cyano-6,7-dimethoxy-quinolin-4-yl)-pyrrolidin-3-yl]-3-(4-isopropoxy-phenyl)-urea] |
| 8 | 467 | COc1cc2ncnc(N3CCC(OC(=O)Nc4ccc(OC(C)C)cc4)CC3)c2cc1OC [Compound 3, (4-Isopropoxy-phenyl)-carbamic acid 1-(6,7-dimethoxy-quinazolin-4-yl)-piperidin-4-yl ester] |
| 37 | 136 | CC(C)c1ccc(NC(=O)OC2CCN(c3ncnc4ccc(C#CCO)cc34)C2)cc1 (stereo not shown) [Compound 14, (4-Isopropyl-phenyl)-carbamic acid 1-[6-(3-hydroxy-prop-1-ynyl)-quinazolin-4-yl]-pyrrolidin-3-yl ester] |
| 433 | 1900 | COc1cc2ncc(C#N)c(N3CCC(NC(=O)Nc4ccc(C(C)C)cc4)C3)c2cc1OC (stereo not shown) [Compound 26, 1-[1-(3-Cyano-6,7-dimethoxy-quinolin-4-yl)-pyrrolidin-3-yl]-3-(4-isopropyl-phenyl)-urea] |
| 2140 | 1500 | COc1cc2ncc(C#N)c(N3CCC(OC(=O)Nc4ccc(C(C)C)cc4)C3)c2cc1OC (stereo not shown) [Compound 37, (4-Isopropyl-phenyl)-carbamic acid 1-(3-cyano-6,7-dimethoxy-quinolin-4-yl)-pyrrolidin-3-yl ester] |
| 16 | 909 | COc1cc2ncnc(N3CCC(NC(=O)Nc4ccc(C(C)C)cc4)C3)c2cc1OC (stereo not shown) [Compound 7, 1-[1-(6,7-Dimethoxy-quinazolin-4-yl)-pyrrolidin-3-yl]-3-(4-isopropyl-phenyl)-urea] |
| 25 | 196 | COc1cc2ncnc(N3CCCC3COC(=O)Nc3ccc(C(C)C)cc3)c2cc1OC (stereo not shown) [Compound 9] |
| 510 | 1500 | COc1cc2ncnc(N3CCCC(NC(=O)Nc4ccc(C(C)C)cc4)C3)c2cc1OC (stereo not shown) [Compound 28, 1-[1-(6,7-Dimethoxy-quinazolin-4-yl)-piperidin-3-yl]-3-(4-isopropyl-phenyl)-urea] |
| 63 | 122 | CCN(CC)CC#Cc1ccc2ncnc(N3CCC(OC(=O)Nc4ccc(C(C)C)cc4)C3)c2c1 (stereo not shown) [Compound 17, (4-Isopropyl-phenyl)-3-carbamic acid 1-[6-(3-diethylamino-prop-1-ynyl)-quinazolin-4-yl]-pyrrolidin-3-yl ester] |
| 37 | 855 | COc1cc2ncnc(N3CCC(C(=O)Nc4ccc(C(C)C)cc4)CC3)c2cc1OC [Compound 13, 1-(6,7-Dimethoxy-quinazolin-4-yl)-piperidine-4-carboxylic acid (4-isopropyl-phenyl)-amide] |
| 670 | 1700 | COc1cc2ncnc(N3CCCC(OC(=O)Nc4ccc(C(C)C)cc4)C3)c2cc1OC (stereo not shown) [Compound 31, (4-Isopropyl-phenyl)-carbamic acid 1-[1-(6,7-dimethoxy-quinazolin-4-yl)-piperidin-3-yl]ester] |

| SMILES | IC50 [1] [nM] | IC50 (MV4-11 cells) [nM] |
| --- | --- | --- |
| COc1cc2ncnc(N3CCC(OC(=O)Nc4ccc(OC5CCC5)nc4)C3)c2cc1OC (stereo not shown) [Compound 12, (6-Cyclobutoxy-pyridin-3-yl)-carbamic acid 1-(6,7-dimethoxy-quinazolin-4-yl)-pyrrolidin-3-yl ester] | 35 | 64 |
